From patent publication US20240368174A1, “Antiviral Heterocyclic Compounds” (Enanta Pharmaceuticals, Inc., priority 2023, published 2024)
pEC50: −log10 of the molar value.

Experiments:
[1] = system: genotype A, “Long” strain RSV; test: RSV-A assay (CPE, ATPlite readout in Hep-2 cells); format: cell-based, Human respiratory syncytial virus; details: human respiratory syncytial virus, activity class
In short: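 Hep-2 cells (8,000/well) were treated with 2-fold serial compound dilutions in duplicate and infected with RSV at MOI 0.1. After 5 days, protection from cytopathic effect was measured as cell viability by ATPlite luminescence, and EC50 values were derived.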

[2] = system: HMPV clinical isolate A2 strain TN 94-49; test: HMPV antiviral assay, Method 1 (LLC-MK2 cells, ATP-Lite); format: cell-based; details: human metapneumovirus, hMPV A2 TN/94-49, LLC-MK2 cells
In short: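 LLC-MK2 cells (5,000/well) infected in suspension with HMPV A2 TN 94-49 at MOI 0.005 in serum-free OptiMEM with 2 μg/mL final TPCK-trypsin, compounds in duplicate from 2 μM top, 2.5-fold, 10 points. After 7 days at 37° C, cell health by ATP-Lite luminescence normalised to virus and cell controls; EC50 from four-parameter fit.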

[3] = system: HMPV clinical isolate A2 strain TN 94-49; test: HMPV antiviral assay, Method 2 (LLC-MK2 cells with CP-100-356, ATP-Lite); format: cell-based; details: human metapneumovirus; hMPV A2 TN/94-49, LLC-MK2 cells with CP-100-356, Method 2
In short: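 LLC-MK2 rhesus kidney cells (5,000/well) infected in suspension with HMPV A2 TN 94-49 at MOI 0.16, in serum-free medium with final 2 μg/mL TPCK-trypsin and 2 μM CP-100-356. Compounds tested in duplicate from 200 nM, 2.5-fold, 10 points; 7 days at 37 °C. Cell health by ATP-Lite luminescence; EC50 by four-parameter fit.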

HRSV = details: prophylactic use, high risk infants; cited from earlier work

Molecule	pEC50 [1]	pEC50 [2]	pEC50 [3]	effective in reducing hospitalizations (HRSV)
C[C@]1(C(N)=O)COc2c1cc([C@@](O)(CNC(=O)c1cc(OC3CC3)c3nn(C(F)F)cc3c1)C1CC1)nc2-c1ccc2c(c1Cl)OC(F)(F)O2 [Example 129]	> 6.70	> 6.30	> 6.70	
[2H]c1nc2c(OC(F)F)cc(C(=O)NC[C@](O)(c3cc4c(c(-c5cc(Cl)c(F)cc5F)n3)OC[C@]4(C)C(N)=O)C3CC3)cc2cc1C([2H])([2H])[2H] [Example 218]	> 6.70	> 6.30	> 6.70	
COc1cccc([C@](O)(CNC(=O)c2cc(OC)c3nn(C4(F)CC4)cc3c2)c2cc3c(c(-c4cc(Cl)c(F)cc4F)n2)OC[C@]3(C)C(N)=O)c1 [Example 162]	> 6.70	> 6.30	> 6.70	
Palivizumab: "a monoclonal antibody that is approved for prophylactic use, but its use is limited due to its high price"				60%
COc1cccc([C@](O)(CNC(=O)c2cc(OC)c3nn(C(F)F)cc3c2)c2cc3c(c(-c4cc(Cl)c(F)cc4F)n2)OC[C@]3(C)C(N)=O)c1 [Example 161]	> 6.70	> 6.30		

Second part, led by results:

pEC50 [1]	pEC50 [2]	pEC50 [3]	Molecule	effective in reducing hospitalizations (HRSV)
> 6.70	> 6.30	> 6.70	COc1cc(C(=O)NC[C@](O)(c2cc3c(c(-c4cc(C(F)(F)F)c(F)cc4F)n2)OC[C@]3(C)C(N)=O)C2CC2)cc2cn(C3CC3)nc12 [Example 394]	
> 6.70	> 6.30	> 6.70	COc1cc(C(=O)NC[C@](O)(c2cc3c(c(-c4cc(C)c(F)cc4F)n2)OC[C@]3(C)C(N)=O)C2CC2)cc2cn(C3CC3)nc12 [Example 385]	
> 6.70	> 6.30	> 6.70	COc1cc(C(=O)NC[C@](O)(c2cc3c(c(-c4ccc5c(c4Cl)OC(F)(F)O5)n2)OC[C@]3(C)C(N)=O)C2CC2)cc2cn(C(F)F)nc12 [Example 457]	
> 6.70	< 6.30	> 6.70	C[C@]1(C(N)=O)COc2c1cc([C@@](O)(CNC(=O)c1cc(O)c3nn(C4CC4)cc3c1)C1CC1)nc2-c1cc(F)c(F)cc1F [Example 360]	
> 6.70	> 6.30	> 6.70	COc1cc(C(=O)NC[C@](O)(c2cc3c(c(-c4cc(C(F)F)c(F)cc4F)n2)OC[C@]3(C)C(N)=O)C2CC2)cc2cn(C3CC3)nc12 [Example 393]	
> 6.70	< 6.30		C=C(CNC(=O)c1cc(OC)c2nn(C3CC3)cc2c1)c1cc2c(c(-c3cc(Cl)c(F)cc3F)n1)OC[C@]2(C)C(N)=O [Example 214]	
